Results published in patent publication US4038401A, “Novel indole derivative” (John Wyeth & Brother Limited, priority 1976, dated 1977).
Read-outs that look alike come from different tables or passages of the source.

How the values were obtained:
laboratory animals = experiment: Toxicity and sedation, tests in laboratory animals (statement in words); conditions: compared with indoramin
[1] = Hypotensive and anti-hypertensive activity (statement in words); format: in vivo; conditions: compared with indoramin
in vivo = conditions: mouse
[2] = test system: rats rendered hypertensive; experiment: Anti-hypertensive activity in renal hypertensive rats (systolic pressure); format: in vivo, rat; conditions: 12 rats
Protocol: Anti-hypertensive activity is determined by the following procedure:
Male or female rats are rendered hypertensive by applying a figure of 8 ligature around one kidney and contralateral nephrectomy. Blood pressure stabilises at a hypertensive level after 6 weeks. Systolic pressure is measured indirectly using an E and M Pneumatic Tail Pulse Transducer and a Devices M2 recorder. A control group of rats is run with each group reacted with drug. Each group usually consists of six rats. Drugs are usually administered by the IP or oral routes. Pressures are read prior to drug administration and at 2 and 24 hours thereafter.
Blood pressure is expressed as % of control values at x hours after an oral dose of 25 mg/kg. In the test 12 rats were used instead of the usual 6.

rats = format: in vivo, rat; conditions: for Duration of sedation: 50 mg/kg; for Increase in comparative sedation: oral 10, 25 or 50 mg/kg, perphenazine and haloperidol rated at 10
Protocol: Twelve rats of each type were split into […] and dosed orally with 10, 25 or 50 mg/kg of the test compound in a vehicle comprising hydroxymethylcellulose (0.5%) in (0.9% saline). Each rat was housed singly, after dosing and observed closely for 2 hours, then intermittently for a further four hours, behavioural changes being noted.
The animals were left at least 72 hours before re-dosing to ensure the disappearance of residual hypotensive and sedative effects.

[3] = 2 hours after oral dose of 25 mg/kg
[4] = 6 hours after oral dose of 25 mg/kg
[5] = 24 hours after oral dose of 25 mg/kg
[6] = normotensive rat (male and female)
[7] = renal hypertensive rat (female)
[8] = spontaneous hypertensive rat (male)

Structure (SMILES): O=C(NC1CCN(CCCC(=O)c2c[nH]c3ccccc23)CC1)c1ccccc1 [4-Benzamido-1-[4-(indol-3-yl)-4-oxobutyl]piperidine]
- sedation (laboratory animals): much less sedative
- toxicity (laboratory animals): much less toxic
- hypotensive and anti-hypertensive activity [1]: comparable to that of indoramin
- LD50 (in vivo; ip): 542 mg/kg
- LD50 at 24 h (in vivo; ip): 1000 mg/kg
- LD50 (in vivo; po): > 4000 mg/kg
- LD50 at 24 h (in vivo; po): > 4000 mg/kg
- Blood pressure expressed as % of control values [2, 3]: 60.9 % of control values
- Blood pressure expressed as % of control values [2, 4]: 62.0 % of control values
- Blood pressure expressed as % of control values [2, 5]: 99.0 % of control values
- Duration of sedation (rats; [6]): 6 h
- Duration of sedation (rats; [7]): 6 h
- Duration of sedation (rats; [8]): 6 h
- Approximate sedative potency ratio (rats; [6]): 1
- Increase in comparative sedation (rats; normotensive rats): 1
- Approximate sedative potency ratio (rats; [7]): 1
- Increase in comparative sedation (rats; renal hypertensive rats): 2
- Approximate sedative potency ratio (rats; [8]): 1
- Increase in comparative sedation (rats; spontaneously hypertensive rats): 1

Structure (SMILES): O=C(NC1CCN(CCc2c[nH]c3ccccc23)CC1)c1ccccc1 [Indoramin, 3-[2(4-benzamidopiperid-1-xl)ethyl] indole, reference compound]
- Blood pressure expressed as % of control values [2, 3]: 78.0 % of control values
- Blood pressure expressed as % of control values [2, 4]: 76.0 % of control values
- Blood pressure expressed as % of control values [2, 5]: 98.0 % of control values

Structure (SMILES): O=C(CCCN1CCC(O)(c2ccc(Cl)cc2)CC1)c1ccc(F)cc1 [haloperidol, reference compound]
- Sedation rating of comparison tranquillisers (rats; rats, reference rating of the scale): 10

Structure (SMILES): OCCN1CCN(CCCN2c3ccccc3Sc3ccc(Cl)cc32)CC1 [perphenazine, reference compound]
- Sedation rating of comparison tranquillisers (rats; rat, in vivo): 10
